From US11541065B2, “Compositions and methods for treating brain injury” (UNM RAINFOREST INNOVATIONS, priority 2018, dated 2023)

How the values were obtained:
MCP-1 = MCP-1 expression and release from neuron cultures (enzyme immunoassay); type: cell-based
Experimental: For measurement of cPLA2 activity and MCP-1 levels in cell lysates, neuronal lysates were prepared by harvesting neurons in ice-cold Tris-buffered saline (pH 7.4) containing phosphatase inhibitor, sonicated three times in five-second bursts and placed on ice (two minutes) between each burst of sonication. The lysed cell suspensions were centrifuged at 10,000 rpm (10 minutes) and the supernatant was collected in another tube. Equal amounts of protein from the supernatant were processed for cPLA2 activity assay according to the manufacturer's protocol. Equal protein from the lysates were also used to estimate MCP-1 levels using an MCP-1 ELISA kit.
For measurement of PGE2 levels and MCP-1 levels released from neurons, culture medium was collected from each experimental plate and centrifuged at 1000 rpm for five minutes to remove cellular debris. Equal volume (100 μl) of the supernatant from each sample was used to determine PGE2 level using the PGE2 ELISA kit according to the manufacturer's instructions.

[1] = test system: control and hyperhomocysteinemic rats subjected to MCAO; test: MCAO (60 min) and reperfusion; infarct size and structural integrity by MRI (T2, ADC, FA maps); type: in vivo, male Wistar rats; conditions: for total infarct volume (T2 maps): 24 hours after MCAO
Experimental: Middle cerebral artery occlusion (MCAO) was performed on both male rats and mice. For rat studies, control and hyperhomocysteinemic male Wistar rats (8-9 weeks, 290-295 g) were subjected to MCAO under anesthesia (2% isoflurane in medical grade oxygen), using the intraluminal method as previously described (Candelario-Jalil, E., et al., 2004, Brain Res 1007:98-108; Deb et al., 2013, J Neurosci 33:17814-17826). Briefly, the right common carotid artery (CCA) was exposed through an incision made in the ventral midline neck region. To prevent improper insertion of the occluding filament, both the external carotid artery and pterygopalatine branch of the internal carotid artery were clipped. A silicon-rubber-coated monofilament (403756, Doccol Corp., Sharon, Mass.) was inserted into the internal carotid artery through an incision made in the CCA, 2 mm proximal from the bifurcation of the CCA, and advanced 18-19 mm from the bifurcation, to occlude the origin of the anterior cerebral, middle cerebral, and posterior communicating arteries. The incision was closed and the rats were allowed to recover from anesthesia. A quick assessment of neurological deficit was done immediately prior to reperfusion and only those animals that had more than 50% of contralateral forelimb flexion and walked in circles to the contralateral side were considered for the study, as previously described (Longa et al., 1989, Stroke 20:84-91). Following 60 minutes of occlusion, the rats were anesthetized and the filament was gently retracted to allow reperfusion. The incision was closed and the rats were allowed to recover from anesthesia. A subset of control and hyperhomocysteinemic rats received a single intravenous injection of GluN2A-NMDAR selective inhibitor NVP-AAM077 (1.2 mg/kg body weight) through the femoral vein, and another subset received a single intraperitoneal injection of GluN2B-NMDAR inhibitor Ro 256981 (6 mg/kg body weight), as previously described (Chaperon et al., 2003, Behav Pharmacol 14:477-87; Fox et al., 2006, Hippocampus 16:907-015). Both NVP-AAM077 and Ro 256981 were administered at the onset of ischemic insult. The rats were then subjected to MRI on days 1, 3, and 14 post-MCAO and a series of behavioral tests was performed between days 7-9 post-MCAO.
Multimodal MRI of rat brain that includes relaxation time imaging and diffusion imaging was performed at 1, 3 and 14 days after MCAO and reperfusion. The rats were placed in a dedicated holder and positioned in the isocenter of a 4.7-Tesla MRI scanner (Bruker Biospin) that is equipped with a 40-cm bore and a gradient of 660 mT/m at rise time within […]. To obtain good signal-to-noise ratio, a small-bore linear RF coil (inner diameter=72 mm) was used for signal excitation, and a single tuned surface coil (RAPID Biomedical, Rimpar, Germany) was used for signal detection (Sood et al., 2009, J Cereb Blood Flow Metab 29:308-316; Taheri, S. and Sood, R., 2007, Magn Reson Imaging 25:613-625; Yang et al., 2013 J Cereb Blood Flow Metab 33:1104-1114). For mice, the MRI was performed only at day 1. The mice were placed in its dedicated holder of inner diameter 72 mm in the 4.7-Tesla MRI scanner with a 40-cm bore size and a gradient rise time/maximum speed of 9000 T/m/s. During MRI, the rats and mice were kept anesthetized with 2% isoflurane in medical grade oxygen. Respiration and heart rate were monitored continuously and body temperature was maintained at 37.0±0.5° C.
For rats, T2-weighted images were acquired with a rapid acquisition with relaxation enhancement (RARE) sequence of Repetition Time (TR)/Echo Time (TE)=5,000 ms/56 ms, Field of View (FOV)=4 cm×4 cm, slice thickness=1 mm, inter-slice distance=1.1 mm, number of slices=12, matrix=256×256 and number of average=3. For mice, T2 weighted images were acquired with a RARE sequence of Repetition Time/Echo Time=5,000 ms/56 ms, Field of View=4 cm×4 cm, slice thickness=1 mm, number of slices=12, matrix=256×256 and number of average=3. […]

PGE2 = PGE2 level in ischemic brain (ELISA); type: in vivo, Wistar rats; conditions: HHcy rats, MCAO 60 minutes, six hours of reperfusion, NVP-AAM077 1.2 mg/kg intravenous at onset of insult
Experimental: Wistar rats were made hyperhomocysteinemic using osmotic pump containing L-homocysteine. Animals were hyperhomocysteinemic (19-23 μM) within three days of pump implantation. Ischemic stroke was induced by MCAO for 60 minutes followed by reperfusion for six hours. Tissue punches from the ipsilateral striatum and cortex were lysed in ice-cold Phosphate buffered saline (pH 7.4) containing phosphatase inhibitor, sonicated three times in five-second bursts and placed on ice (two minutes) between each burst of sonication. The lysed cell suspensions were centrifuged at 10,000 rpm (10 minutes) and the supernatant was collected in another tube. Equal amounts of protein from the supernatant were processed for PGE2 and MCP-1 levels using respective ELISA kit.

[2] = control rats, single injection at onset of ischemic insult (NVP-AAM077 1.2 mg/kg; Ro 256981 6 mg/kg), untreated control 18.65±2.89%
[3] = hyperhomocysteinemic (HHcy) rats, single injection at onset of insult (NVP-AAM077 1.2 mg/kg; Ro 256981 6 mg/kg), untreated HHcy 37.41±2.33%

SMILES | expression and release of MCP-1 from neurons (MCP-1; L-homocysteine 50 μM, 0, two and four hours, alone) | lesion volume (T2 maps) ([1]; HHcy rats, day 3 after MCAO, NVP-AAM077 1.2 mg/kg, untreated HHcy 38.63±2.75%) | FA value in the infarcted area ([1]; HHcy rats, day 14 after MCAO, NVP-AAM077 1.2 mg/kg, untreated HHcy 0.25±0.01) | lesion volume (T2 maps) ([1]; HHcy rats, day 14 after MCAO, NVP-AAM077 1.2 mg/kg, untreated HHcy 27.16±2.18%) | total infarct volume (T2 maps) [1, 2] | total infarct volume (T2 maps) [1, 3] | effect on homocysteine-induced expression and release of MCP-1 (MCP-1; L-homocysteine 50 μM four hours, with DL-AP5 200 μM or NVP-AAM077 30 nM) | PGE2 level in ischemic hemisphere (cortex and striatum) (PGE2)
N[C@@H](CCS)C(=O)O [L-homocysteine] | progressive increase in expression and release |  |  |  |  |  |  | 
C[C@H](NC(c1cccc2[nH]c(=O)c(=O)[nH]c12)P(=O)(O)O)c1ccc(Br)cc1 (stereo partly drawn) [NVP-AAM077, ({[(1S)-1-(4-bromophenyl)ethyl]amino}-(2,3-dioxo-1,4-dihydroquinoxalin-5-yl)methyl)phosphonic acid] |  | 19.61±4.48% | 0.32±0.01 | 10.76±2.40% | 16.07±2.8% | 17.98±3.24% | attenuates the expression and release of MCP-1 | attenuated the increase in the level of both PGE2 and MCP-1
C[C@@H](CN1CCC(Cc2ccccc2)CC1)[C@@H](O)c1ccc(O)cc1 [Ro 25-6981] |  |  |  |  | 7.46±1.24% | 32.48±4.32% |  | 
